Data as given in US4520031A, “Method for reducing toxic effects of methyl-glyoxal bis-guanylhydrazone” (priority 1982, dated 1985).
Entries after “also recorded” stand apart in the source; their conditions may differ. Read-outs that look alike come from different tables or passages of the source.

Key:
[1] = set-up: muscle pain and weakness in patient with acute leukemia: dose or concentration left out as unconfirmed
Description: During the course of the clinical experiments, MGBG was administered to patients in approximately weekly doses ranging from 250 to 1000 mg per square meter.
Pre-treatment minimum evaluation included chest roentgenogram, liver and renal function tests, complete blood count with differential and platelet count and serum glucose. Pre-treatment performance status was recorded for each patient in accordance with SWOG criteria.
This intravenous infusion is administered to the patient over a period of time not less than 30 minutes. Accordingly, an approximation of the patient's surface area in square meters is calculated using a height and weight to surface area nomogram (listed in Documenta Geigy, Scientific Tables (1970) p. 537) and this factor is applied in determining the appropriate amount of MGBG salt to be added to the infusion solution. […] In the absence of toxicity, subsequent doses of MGBG are increased by 100 mg/m^2 over the previous week's dose. If patients experience moderate or severe reversible toxicity, the dose is reduced by 100 mg/m^2 relative to the previous week's dose. No change in dosage strength is made for mild toxicity.

Lung (non-small cell) = test: Response to weekly MGBG, lung; format: in vivo, human; details: 6 evaluable patients
leukemia-L1210 = details: Freelander and French; cited from earlier work
[2] = system: mitochondrial respiration; details: in vitro; cited from earlier work
[3] = cited from earlier work; for Penile inflammation: % of male population
[4] = Group I, less than 100 mg/m^2/day
[5] = Group II, 100 to 125 mg/m^2/day
[6] = Group III, 126 to 160 mg/m^2/day

With `CC(C=NNC(=N)N)=NNC(=N)N` [MGBG, 1,1'-[(methylethanediylidene)dinitrilo] diguanidine] as the compound, how does the “Number with Toxicity” value ([1]; 1 course MGBG, 13 patients) read?
Its value is 1 patients.

What about the “Number with Toxicity (Approx %)” value ([1]; 1 course MGBG, 13 patients) of the same compound?
Its value is 8%.

What about the “Number with Toxicity” value ([1]; 2 courses MGBG, 25 patients) of the same compound?
Its value is 7 patients.

And the “Number with Toxicity (Approx %)” value ([1]; 2 courses MGBG, 25 patients)?
Its value is 28%.

And the “Number with Toxicity” value ([1]; 3 courses MGBG, 15 patients)?
Its value is 6 patients.

And the “Number with Toxicity (Approx %)” value ([1]; 3 courses MGBG, 15 patients)?
The value was 40%.

And the “Anemia, Hemoglobin 5.0-6.9 g/100 ml” value ([1]; 90 patients)?
The value was 2 patients.

And the “Anemia, Hemoglobin 7.0-8.9 g/100 ml” value ([1]; 90 patients)?
Its value is 1 patients.

What about the “Diarrhea: 3-4 stools/day, no dehydration” value ([1]; 90 patients) of the same compound?
Its value is 1 patients.

And the “Diarrhea: 4 liquid stools/day, IV hydration required” value ([1]; 90 patients)?
The value was 1 patients.

What about the “Granulocytes: <1000/mm^3” value ([1]; 90 patients) of the same compound?
The value was 3 patients.

What about the “vomiting ≤6 times/day” value ([1]; 90 patients) of the same compound?
Its value is 5 patients.

What about the “vomiting ≥7 times/day” value ([1]; 90 patients) of the same compound?
The value was 3 patients.

And the “patients with no toxicity (number)” value ([1]; 90 patients, 500 mg/m^2 or more each week)?
The value was 67 patients.

What about the “Mucositis: drug-related death” value ([1]; 90 patients, patient with hepatoma, one dose at 600 mg/m^2) of the same compound?
The value was 1 patients.

What about the “muscle pain and weakness in patient with acute leukemia” value ([1]; acute leukemia, three weekly doses) of the same compound?
Its value is “One”.

What about the “toxicity at 250 mg/m^2 weekly” value ([1]; first twelve patients, 250 mg/m^2 weekly) of the same compound?
Its value is “no toxicity”.

What about the “Anorexia (Approx. %)” value ([1]; human, in vivo) of the same compound?
Its value is 8%.

What about the “Anorexia (No. of Patients)” value ([1]; human, in vivo) of the same compound?
Its value is 7 patients.

And the “Balanitis (Approx. %)” value ([1]; human, in vivo)?
Its value is 4%.

What about the “Balanitis (No. of Patients)” value ([1]; human, in vivo) of the same compound?
Its value is 4 patients.

And the “Diarrhea (Approx. %)” value ([1]; human, in vivo)?
The value was 3%.

And the “Diarrhea (No. of Patients)” value ([1]; human, in vivo)?
Its value is 3 patients.

What about the “Granulocytes: <1500 mm^3” value ([1]; human, in vivo) of the same compound?
Its value is 2 patients.

And the “Hematologic (Approx. %)” value ([1]; human, in vivo)?
The value was 11%.

What about the “Hematologic (No. of Patients)” value ([1]; human, in vivo) of the same compound?
Its value is 10 patients.

What about the “Mucositis: erythema” value ([1]; human, in vivo) of the same compound?
Its value is 3 patients.

What about the “Mucositis: ulcers, able to eat” value ([1]; human, in vivo) of the same compound?
Its value is 7 patients.

And the “Mucositis: ulcers, unable to eat” value ([1]; human, in vivo)?
Its value is 6 patients.

And the “Myelosuppression (number)” value ([1]; human, in vivo)?
Its value is 7 patients.

And the “Myelosuppression (percent)” value ([1]; human, in vivo)?
The value was 8%.

And the “Myopathy (Approx. %)” value ([1]; human, in vivo)?
The value was 3%.

What about the “Myopathy (No. of Patients)” value ([1]; human, in vivo) of the same compound?
Its value is 3 patients.

What about the “Nausea and vomiting (Approx. %)” value ([1]; human, in vivo) of the same compound?
Its value is 16%.

What about the “Nausea and vomiting (No. of Patients)” value ([1]; human, in vivo) of the same compound?
The value was 14 patients.

And the “Platelets: 25 × 10^3 -50 × 10^3 /mm^3” value ([1]; human, in vivo)?
Its value is 2 patients.

And the “Skin rash (Approx. %)” value ([1]; human, in vivo)?
The value was 2%.

What about the “Skin rash (No. of Patients)” value ([1]; human, in vivo) of the same compound?
Its value is 2 patients.

What about the “Urethritis (Approx. %)” value ([1]; human, in vivo) of the same compound?
Its value is 3%.

And the “Urethritis (No. of Patients)” value ([1]; human, in vivo)?
The value was 3 patients.

And the “Vasculitis (Approx. %)” value ([1]; human, in vivo)?
The value was 2%.

And the “Vasculitis (No. of Patients)” value ([1]; human, in vivo)?
Its value is 2 patients.

What about the “anemia (number)” value ([1]; human, in vivo) of the same compound?
Its value is 3 patients.

What about the “anemia (percent)” value ([1]; human, in vivo) of the same compound?
The value was 3%.

And the bloody diarrhea ([1]; human, in vivo)?
Its bloody diarrhea is 1 patients.

What about the “hospitalization secondary to vomiting” value ([1]; human, in vivo) of the same compound?
Its value is 1 patients.

And the “nausea, no vomiting” value ([1]; human, in vivo)?
Its value is 5 patients.

What about the “severe muscle pain and weakness of the lower extremities” value ([1]; human, in vivo) of the same compound?
The value was “three”.

What about the cumulative toxicity ([1]; increasing numbers of courses) of the same compound?
The cumulative toxicity was “toxicity appeared to be cumulative”.

What about the “reversibility of muscle pain and weakness” value ([1]; three patients) of the same compound?
Its value is “reversible with drug withdrawal”.

What about the “creatinine phosphokinase and aldolase” value ([1]; three patients with muscle pain and weakness) of the same compound?
Its value is “normal”.

What about the “Number with Toxicity” value ([1]; ≥4 courses MGBG, 56 patients) of the same compound?
Its value is 28 patients.

What about the “Number with Toxicity (Approx %)” value ([1]; ≥4 courses MGBG, 56 patients) of the same compound?
Its value is 50%.

What about the “CR + PR” value (Lung (non-small cell)) of the same compound?
Its value is 2.

What about the “No Response” value (Lung (non-small cell)) of the same compound?
The value was 4.

And the “PR (Partial response)” value (Lung (non-small cell))?
Its value is 2.

What about the antitumor activity (leukemia-L1210) of the same compound?
The antitumor activity was “growth inhibiting effects; also recorded: antitumor activity”.

What about the “concentration with complete inhibition of mitochondrial respiration” value [2] of the same compound?
Its value is ≥ 30000 ng/mL.

And the “Acroerythema (number of patients)” value [3, 4]?
The value was 0 patients.

And the Diarrhea [3, 4]?
Its Diarrhea is 40%.

And the “Diarrhea (number of patients)” value [3, 4]?
Its value is 4 patients.

And the Died during treatment [3, 4]?
Its Died during treatment is 42%.

What about the “Died during treatment (number of patients)” value [3, 4] of the same compound?
The value was 5 patients.

And the “Erythema Nodosum” value [3, 4]?
The value was 10%.

And the “Erythema Nodosum (number of patients)” value [3, 4]?
The value was 1 patients.

What about the Mucosal involvement [3, 4] of the same compound?
Its Mucosal involvement is 80%.

And the “Mucosal involvement (number of patients)” value [3, 4]?
The value was 8 patients.

And the “Penile inflammation (number of patients)” value [3, 4]?
The value was 0 patients.

What about the Vasculitis [3, 4] of the same compound?
The Vasculitis was 40%.

What about the “Vasculitis (number of patients)” value [3, 4] of the same compound?
The value was 4 patients.

What about the “Weight Loss (Median %)” value [3, 4] of the same compound?
The value was 0%.

And the Penile inflammation [3, 5]?
Its Penile inflammation is 25%.

And the Acroerythema [3, 5]?
The Acroerythema was 17%.

What about the “Acroerythema (number of patients)” value [3, 5] of the same compound?
The value was 4 patients.

What about the Diarrhea [3, 5] of the same compound?
Its Diarrhea is 41%.

What about the “Diarrhea (number of patients)” value [3, 5] of the same compound?
The value was 6 patients.

What about the Died during treatment [3, 5] of the same compound?
The Died during treatment was 62%.

And the “Died during treatment (number of patients)” value [3, 5]?
Its value is 10 patients.

What about the “Erythema Nodosum” value [3, 5] of the same compound?
The value was 9%.

And the “Erythema Nodosum (number of patients)” value [3, 5]?
The value was 2 patients.

What about the Mucosal involvement [3, 5] of the same compound?
Its Mucosal involvement is 98%.

And the “Mucosal involvement (number of patients)” value [3, 5]?
Its value is 15 patients.

And the “Penile inflammation (number of patients)” value [3, 5]?
Its value is 3 patients.

And the Vasculitis [3, 5]?
The Vasculitis was 25%.

And the “Vasculitis (number of patients)” value [3, 5]?
The value was 5 patients.

What about the “Weight Loss (Median %)” value [3, 5] of the same compound?
The value was 6%.

And the Penile inflammation [3, 6]?
The Penile inflammation was 23%.

What about the Acroerythema [3, 6] of the same compound?
The Acroerythema was 17%.

What about the “Acroerythema (number of patients)” value [3, 6] of the same compound?
The value was 6 patients.

What about the Diarrhea [3, 6] of the same compound?
Its Diarrhea is 42%.

And the “Diarrhea (number of patients)” value [3, 6]?
Its value is 15 patients.

What about the Died during treatment [3, 6] of the same compound?
Its Died during treatment is 30%.

And the “Died during treatment (number of patients)” value [3, 6]?
Its value is 11 patients.

And the “Erythema Nodosum” value [3, 6]?
Its value is 12%.

What about the “Erythema Nodosum (number of patients)” value [3, 6] of the same compound?
Its value is 3 patients.

What about the Mucosal involvement [3, 6] of the same compound?
Its Mucosal involvement is 91%.

And the “Mucosal involvement (number of patients)” value [3, 6]?
The value was 31 patients.

And the “Penile inflammation (number of patients)” value [3, 6]?
The value was 4 patients.

What about the Vasculitis [3, 6] of the same compound?
The Vasculitis was 25%.

What about the “Vasculitis (number of patients)” value [3, 6] of the same compound?
Its value is 8 patients.

And the “Weight Loss (Median %)” value [3, 6]?
The value was 10%.

And the Acroerythema ([3]; Group IV, over 160 mg/m^2/day)?
Its Acroerythema is 20%.

And the “Acroerythema (number of patients)” value ([3]; Group IV, over 160 mg/m^2/day)?
Its value is 2 patients.

What about the Diarrhea ([3]; Group IV, over 160 mg/m^2/day) of the same compound?
The Diarrhea was 20%.

What about the “Diarrhea (number of patients)” value ([3]; Group IV, over 160 mg/m^2/day) of the same compound?
The value was 2 patients.

What about the Died during treatment ([3]; Group IV, over 160 mg/m^2/day) of the same compound?
Its Died during treatment is 83%.

What about the “Died during treatment (number of patients)” value ([3]; Group IV, over 160 mg/m^2/day) of the same compound?
The value was 10 patients.

What about the “Erythema Nodosum (number of patients)” value ([3]; Group IV, over 160 mg/m^2/day) of the same compound?
Its value is 0 patients.

What about the Mucosal involvement ([3]; Group IV, over 160 mg/m^2/day) of the same compound?
Its Mucosal involvement is 100%.

And the “Mucosal involvement (number of patients)” value ([3]; Group IV, over 160 mg/m^2/day)?
Its value is 10 patients.

And the “Penile inflammation (number of patients)” value ([3]; Group IV, over 160 mg/m^2/day)?
The value was 0 patients.

And the Vasculitis ([3]; Group IV, over 160 mg/m^2/day)?
Its Vasculitis is 20%.

And the “Vasculitis (number of patients)” value ([3]; Group IV, over 160 mg/m^2/day)?
The value was 2 patients.

What about the “Weight Loss (Median %)” value ([3]; Group IV, over 160 mg/m^2/day) of the same compound?
The value was 5%.

What about the “incidence of toxicity under other schedules” value ([3]; continuous 24-hour infusion, very high initial dose then lower maintenance doses, versus daily dosing) of the same compound?
The value was “neither of these regimens altered the incidence of associated toxicity”.
